Data published in patent US10363239B2, “Method for inhibiting growth of cancer cells” (Pain Therapeutics, Inc., priority 2013, dated 2019).
Where two headings read alike, the source gives them in different places.

Legend:
[1] = target: FLNA pentapeptide of SEQ ID NO: 1 (Bn-VAKGL) (Homo sapiens, UniProt P21333); test: FITC-NLX-based FLNA screening assay (inhibition of FITC-naloxone binding to Bn-VAKGL on streptavidin plates); settings: 10 nM FITC-NLX
mu opiate receptor (MOR) = test: MOR agonist activity using [35S]GTPγS binding assay in striatal membranes; format: biochemical; settings: for MOR agonist activity ([35S]GTPγS binding), FLNA-Binding Compound as Agonist 1 μM + BFNA: 1 μM compound + 1 μM β-funaltrexamine
Description: To assess the mu opiate receptor (MOR) agonist activity of positive compounds from the FLNA screening, compounds were tested in a [^35S]GTPγS binding assay using striatal membranes. […] This assay measures a functional consequence of receptor occupancy at one of the earliest receptor-mediated events. The assay permits traditional pharmacological parameters of potency, efficacy and antagonist affinity, with the advantage that agonist measures are not subjected to amplification or other modulation that may occur when analyzing parameters further downstream of the receptor.
Thus, striatal tissue was homogenized in 10 volumes of ice cold 25 mM HEPES buffer, pH 7.4, which contained 1 mM EGTA, 100 mM sucrose, 50 μg/ml leupeptin, 0.04 mM PMSF, 2 μg/ml soybean trypsin inhibitor and 0.2% 2-mercaptoethanol. The homogenates were centrifuged at 800×g for 5 minutes and the supernatants were centrifuged at 49,000×g for 20 minutes. The resulting pellets were suspended in 10 volume of reaction buffer, which contained 25 mM HEPES, pH 7.5, 100 mM NaCl, 50 μg/ml leupeptin, 2 μg/ml soybean trypsin inhibitor, 0.04 mM PMSF and 0.02% […].
The resultant striatal membrane preparation (200 μg) was admixed and maintained (incubated) at 30° C. for 5 minutes in reaction buffer as above that additionally contained 1 mM MgCl2 and 0.5 nM [^35S]GTPγS (0.1 μCi/assay, PerkinElmer Life and Analytical Sciences) in a total volume of 250 μl and continued for 5 minutes in the absence or presence of 0.1-10 μM of an assayed compound of interest. The reaction was terminated by dilution with 750 μl of ice-cold reaction buffer that contained 20 mM MgCl2 and 1 mM EGTA and immediate centrifugation at 16,000×g for 5 minutes.
The resulting pellet was solubilized by sonicating for 10 seconds in 0.5 ml of immunoprecipitation buffer containing 0.5% digitonin, 0.2% sodium cholate and 0.5% NP-40. Normal rabbit serum (1 μl) was added to 1 ml of lysate and incubated at 25° C. for 30 minutes. Nonspecific immune complexes were removed by incubation with 25 μl of protein A/G-conjugated agarose beads at 25° C. for 30 minutes followed by centrifugation at 5,000×g at 4° C. for 5 minutes. The supernatant was divided and separately incubated at 25° C. for 30 minutes with antibodies raised against Gαo proteins (1:1,000 dilutions).
The immunocomplexes so formed were collected by incubation at 25° C. for 30 minutes with 40 μl of agarose-conjugated protein A/G beads and centrifugation at 5,000×g at 4° C. for 5 minutes. The pellet was washed and suspended in buffer containing 50 mM Tris-HCl, pH 8.0, and 1% NP-40. The radioactivity in the suspension was determined by liquid scintillation spectrometry.

[2] = FLNA-binding compound 0.01 μM, read-out: Percent Binding Inhibition
[3] = FLNA-binding compound 0.1 μM, read-out: Percent Binding Inhibition
[4] = FLNA-binding compound 1 μM, read-out: Percent Binding Inhibition
[5] = Series C-2, 0.1 μM compound, relative to DAMGO
[6] = Series C-2, 0.1 μM compound, [35S]GTPγS binding to Gαo, striatal membranes
[7] = Series C-2, 1 μM compound + 1 μM β-FNA
[8] = Series C-2, 1 μM compound + β-FNA, relative to DAMGO + BFNA
[9] = Series C-2, 1 μM compound, relative to DAMGO
[10] = Series C-2, 1 μM compound, [35S]GTPγS binding to Gαo, striatal membranes
[11] = read-out: Percent Binding Inhibition, FLNA-binding compound 0.01 μM
[12] = read-out: Percent Binding Inhibition, FLNA-binding compound 0.1 μM
[13] = read-out: Percent Binding Inhibition, FLNA-binding compound 1 μM
[14] = Series B, 0.1 μM compound, relative to DAMGO
[15] = Series B, 0.1 μM compound, [35S]GTPγS binding to Gαo, striatal membranes
[16] = Series B, 1 μM compound + 1 μM β-FNA
[17] = Series B, 1 μM compound + β-FNA, relative to DAMGO + BFNA
[18] = Series B, 1 μM compound, relative to DAMGO
[19] = Series B, 1 μM compound, [35S]GTPγS binding to Gαo, striatal membranes
[20] = 0.1 μM compound relative to DAMGO
[21] = 1 μM compound + BFNA relative to DAMGO + BFNA
[22] = 1 μM compound relative to DAMGO

SMILES: O=[N+]([O-])c1ccc(S(=O)(=O)N2CCC3(CC2)NCCS3)cc1 [Compound C0044]
- inhibition at 0.01 µM [1, 2]: 37.3%
- inhibition at 0.1 µM [1, 3]: 43.9%
- inhibition at 1 µM [1, 4]: 50.6%
- % DAMGO (0.1 μM) (mu opiate receptor (MOR); [5]): 102.8%
- MOR agonist activity, percent [35S]GTPγS binding at the stated compound concentration (mu opiate receptor (MOR); [6]): 173.7%
- MOR agonist activity, percent [35S]GTPγS binding at the stated compound concentration (mu opiate receptor (MOR); [7]): 59.1%
- % DAMGO + BFNA (mu opiate receptor (MOR); [8]): 356.0%
- % DAMGO (1 μM) (mu opiate receptor (MOR); [9]): 128.0%
- MOR agonist activity, percent [35S]GTPγS binding at the stated compound concentration (mu opiate receptor (MOR); [10]): 280.1%

SMILES: COc1ccc(CC(=O)CC2c3c(cc4c(c3OC)OCO4)CC[N+]2(C)C)c(OC)c1 (stereo not drawn) [Compound B0029]
- inhibition at 0.01 µM [1, 11]: 33.4%
- inhibition at 0.1 µM [1, 12]: 42.9%
- inhibition at 1 µM [1, 13]: 50.2%
- % DAMGO (0.1 μM) (mu opiate receptor (MOR); [14]): 89.4%
- MOR agonist activity, percent [35S]GTPγS binding at the stated compound concentration (mu opiate receptor (MOR); [15]): 171.9%
- MOR agonist activity, percent [35S]GTPγS binding at the stated compound concentration (mu opiate receptor (MOR); [16]): 17.6%
- % DAMGO + BFNA (mu opiate receptor (MOR); [17]): 40.1%
- % DAMGO (1 μM) (mu opiate receptor (MOR); [18]): 77.0%
- MOR agonist activity, percent [35S]GTPγS binding at the stated compound concentration (mu opiate receptor (MOR); [19]): 210.3%

SMILES: COc1ccc(OCC(O)CN2CC(C)OC(C)C2)cc1 (stereo not drawn) [Compound A0048]
- inhibition at 0.01 µM [1, 11]: 38.5%
- inhibition at 0.1 µM [1, 12]: 44%
- inhibition at 1 µM [1, 13]: 46.9%
- MOR agonist activity ([35S]GTPγS binding), FLNA-Binding Compound as Agonist 0.1 μM (mu opiate receptor (MOR); 0.1 μM compound): 233.7%
- % DAMGO (0.1 μM) (mu opiate receptor (MOR); [20]): 119.1%
- MOR agonist activity ([35S]GTPγS binding), FLNA-Binding Compound as Agonist 1 μM (mu opiate receptor (MOR); 1 μM compound): 302.9%
- MOR agonist activity ([35S]GTPγS binding), FLNA-Binding Compound as Agonist 1 μM + BFNA (mu opiate receptor (MOR)): 167.2%
- % DAMGO + BFNA (mu opiate receptor (MOR); [21]): 226.3%
- % DAMGO (1 μM) (mu opiate receptor (MOR); [22]): 109.7%

SMILES: CC1CCC(C(C)C)C(OCC(O)CN2CCCCC2=O)C1 (stereo not drawn) [Compound A0036]
- inhibition at 0.01 µM [1, 2]: 45.6%
- inhibition at 0.1 µM [1, 3]: 50.1%
- inhibition at 1 µM [1, 4]: 54.4%
- MOR agonist activity ([35S]GTPγS binding), FLNA-Binding Compound as Agonist 0.1 μM (mu opiate receptor (MOR); 0.1 μM compound): 144.1%
- % DAMGO (0.1 μM) (mu opiate receptor (MOR); [20]): 73.4%
- MOR agonist activity ([35S]GTPγS binding), FLNA-Binding Compound as Agonist 1 μM (mu opiate receptor (MOR); 1 μM compound): 167.5%
- MOR agonist activity ([35S]GTPγS binding), FLNA-Binding Compound as Agonist 1 μM + BFNA (mu opiate receptor (MOR)): 63.2%
- % DAMGO + BFNA (mu opiate receptor (MOR); [21]): 85.5%
- % DAMGO (1 μM) (mu opiate receptor (MOR); [22]): 60.7%

SMILES: COc1c2c(cc3c1C(CC(=O)c1ccc(O)c(C)c1)[N+](C)(C)CC3)OCO2 (stereo not drawn) [Compound B0002]
- inhibition at 0.01 µM [1, 11]: 40.2%
- inhibition at 0.1 µM [1, 12]: 46.4%
- inhibition at 1 µM [1, 13]: 55%
- % DAMGO (0.1 μM) (mu opiate receptor (MOR); [14]): 100.0%
- MOR agonist activity, percent [35S]GTPγS binding at the stated compound concentration (mu opiate receptor (MOR); [15]): 165.7%
- MOR agonist activity, percent [35S]GTPγS binding at the stated compound concentration (mu opiate receptor (MOR); [16]): 101.4%
- % DAMGO + BFNA (mu opiate receptor (MOR); [17]): 156.0%
- % DAMGO (1 μM) (mu opiate receptor (MOR); [18]): 81.1%
- MOR agonist activity, percent [35S]GTPγS binding at the stated compound concentration (mu opiate receptor (MOR); [19]): 219.0%

SMILES: COc1ccc(S(=O)(=O)N2CCOC23CCN(C(=O)OC(C)(C)C)CC3)cc1 [Compound C0043]
- inhibition at 0.01 µM [1, 2]: 43.9%
- inhibition at 0.1 µM [1, 3]: 51.3%
- inhibition at 1 µM [1, 4]: 58%
- % DAMGO (0.1 μM) (mu opiate receptor (MOR); [5]): 103.8%
- MOR agonist activity, percent [35S]GTPγS binding at the stated compound concentration (mu opiate receptor (MOR); [6]): 175.4%
- MOR agonist activity, percent [35S]GTPγS binding at the stated compound concentration (mu opiate receptor (MOR); [7]): 83.3%
- % DAMGO + BFNA (mu opiate receptor (MOR); [8]): 501.8%
- % DAMGO (1 μM) (mu opiate receptor (MOR); [9]): 110.9%
- MOR agonist activity, percent [35S]GTPγS binding at the stated compound concentration (mu opiate receptor (MOR); [10]): 242.6%

SMILES: CC(=O)c1ccc(C(=O)N2CCC3(CC2)OCCN3C(=O)c2ccc(C(C)=O)cc2)cc1 [Compound C0054]
- inhibition at 0.01 µM [1, 2]: 32.9%
- inhibition at 0.1 µM [1, 3]: 39.4%
- inhibition at 1 µM [1, 4]: 43.3%
- % DAMGO (0.1 μM) (mu opiate receptor (MOR); Series C-1, 0.1 μM compound, relative to DAMGO): 47.0%
- Concentration of FLNA-Binding Compound as Agonist 0.1 μM (mu opiate receptor (MOR); Series C-1, 0.1 μM compound, [35S]GTPγS binding to Gαo, striatal membranes): 68.2%
- Concentration of FLNA-Binding Compound as Agonist 1 μM + BFNA (mu opiate receptor (MOR); Series C-1, 1 μM compound + 1 μM β-FNA): 43.5%
- % DAMGO + BFNA (mu opiate receptor (MOR); Series C-1, 1 μM compound + β-FNA, relative to DAMGO + BFNA): 98.9%
- % DAMGO (1 μM) (mu opiate receptor (MOR); Series C-1, 1 μM compound, relative to DAMGO): 54.5%
- Concentration of FLNA-Binding Compound as Agonist 1 μM (mu opiate receptor (MOR); Series C-1, 1 μM compound, [35S]GTPγS binding to Gαo, striatal membranes): 127.0%
